Measurements as given in article PMC9780108, “An intrinsically disordered antimicrobial peptide dendrimer from stereorandomized virtual screening” (Cell Reports. Physical Science, 2022).

Assays:
[1] = test system: P. aeruginosa PA14; details: MH medium pH 7.4, 16–20 h at 37°C; two independent experiments in duplicate
[2] = test system: P. aeruginosa ZEM-1A; details: MDR clinical isolate; MH medium pH 7.4, 16–20 h at 37°C; two independent experiments in duplicate
[3] = test system: S. aureus Newman; details: MH medium pH 7.4, 16–20 h at 37°C; two independent experiments in duplicate
[4] = test system: P. aeruginosa PAO1; test: DiSC3(5) inner membrane depolarization assay; format: cell-based, Pseudomonas aeruginosa; details: PAO1 in HEPES buffer pH 7.4, 2 μM DiSC3(5), up to 64 μg/mL, read within 5 min
Method: page 29: 11. DiSC3(5) Membrane Depolarization Assay A single colony of Pseudomonas aeruginosa PAO1 was grown overnight with shaking (150 rpm) in LB-broth (5 mL) at 37 °C. 100 μL of the overnight culture was regrown in 10 mL LB- broth with shaking (200 rpm) to the exponential phase OD 600 = 1 (10^9 CFU/mL). Bacteria were washed once with HEPES buffer (5 mM HEPES, 5 mM glucose, pH 7.4) and diluted to OD 600 = 0.4. Stock solution of 10 mM of DiSC3(5) was prepared in DMSO. Stock solutions of 1 mg/mL of the compounds were prepared in sterilized milli-Q water and diluted to the beginning concentration of 128 μg/mL in 200 μL HEPES buffer containing […] the fluorescent probe DiSC3(5) 4 μM. The diluted samples were added to the first well of 96-well plates (black wells, flat bottom, BRAND® GmbH Wertheim, Germany) and diluted serially by 1/2. 100 μL of the bacterial suspension in HEPES buffer (without DiSC3(5)) were added to each well. In this case, the final OD of bacteria was 0.2, the final concentration of peptide in the first column is 64 μg/mL and DiSC3(5) 2 μM. The control wells are buffer containing DiSC3(5) and bacterial suspension containing DiSC3(5) in HEPES buffer. The plate was measured with a Tecan instrument Infinite M1000 within 5 min. The plate was enabled to shake for 5 sec before measurement. […]

[5] = test system: E. cloacae; details: MH medium pH 7.4, 16–20 h at 37°C; two independent experiments in duplicate
[6] = test system: S aureus COL (methicillin-resistant Staphylococcus aureus); details: broth microdilution, two independent experiments in duplicate
[7] = test system: A. baumannii ATCC 19606; details: broth microdilution, two independent experiments in duplicate
[8] = test system: K. pneumoniae OXA-48; details: carbapenem-resistant strain; MH medium pH 7.4, 16–20 h at 37°C; two independent experiments in duplicate
[9] = test system: P. aeruginosa PAO1; test: PI cell permeabilization assay (flow cytometry); format: cell-based, Pseudomonas aeruginosa; details: PAO1 (OD600 = 1) incubated 20 min at 37°C, PI 5 µg/mL
Method: page 31: 12. Cell Membrane Permeability Assay Propidium iodide (PI) was used as the fluorescent dye to evaluate integrity of bacterial membranes. A single colony of Pseudomonas aeruginosa PAO1 was grown overnight with shaking (150 rpm) in LB-broth (5 mL) at 37 °C. 100 μL of the overnight culture was regrown in 10 mL LB-broth to the exponential phase OD600 1 (10^9 CFU/mL). Bacteria was washed with MH and then re-suspended to a working concentration of OD600 = 1. AMPDs and polymyxin B (stock solution 1 mg/mL) were added at different final concentrations ( 16, 32 and 64 μg/mL). Samples were incubated with shaking (150 rpm) at 37°C for 20 minutes before samples were centrifuged at 14 000 rpm for 3 min. Bacteria sample was washed twice with PBS and stained with PI 5 µg/mL in PBS with shaking (150 rpm) at 37°C for 20 minutes. Bacteria sample was washed 5 times with PBS and the fluorescence intensity of bacteria suspensions was observed and recorded on a ImageStream ® X Mark II Imaging Flow Cytometer with a 488 nm laser , bacteria cells wi th fluorescent intensity higher than 2 × 104 is defined as PI positive cells. Percentage of PI positive cells was calculated by IDEA S workstation . S30

[10] = test system: HEK293 cell line; format: cell-based; details: HEK293 cell line, 48 h at 37°C, DMEM 10% FBS, AlamarBlue; mean ± SD, three independent experiments in triplicates
How it was run: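 HEK293 cells seeded at 2 × 10³/well, incubated 48 h at 37 °C with serially diluted compounds (stock 2 mg/mL) in DMEM with 10% FBS. AlamarBlue added at 10% final for 3–5 h; fluorescence ex 560/em 590 nm, normalized to untreated cells.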

[11] = test system: P. aeruginosa PAO1; details: broth microdilution, two independent experiments in duplicate
[12] = test system: P. aeruginosa ZEM9A; details: clinical isolate; MH medium pH 7.4, 16–20 h at 37°C; two independent experiments in duplicate
[13] = test system: S. maltophilia; details: MH medium pH 7.4, 16–20 h at 37°C; two independent experiments in duplicate
[14] = test system: B. cenocepacia; details: MH medium pH 7.4, 16–20 h at 37°C; two independent experiments in duplicate
[15] = test system: E. coli W3110; details: broth microdilution, two independent experiments in duplicate
[16] = test system: human red blood cells; test: Hemolysis assay (MHC); details: Table 1; human red blood cells in PBS (pH 7.4), 4 h, visual inspection; two independent experiments in duplicate
[17] = test system: K. pneumoniae NCTC 418; details: broth microdilution, two independent experiments in duplicate
[18] = Müller-Hinton medium pH 5.0, 16–20 h at 37°C
[19] = Müller-Hinton medium pH 8.0, 16–20 h at 37°C
[20] = Table 1, Müller-Hinton medium pH 7.4, 16–20 h at 37°C

Question: Which results are given for polymyxin B [PMB, reference compound]?
Answer: MIC, P. aeruginosa PA14 [1]: 0.5 mg/L; MIC, P. aeruginosa ZEM-1A [2]: 0.5 mg/L; MIC, S. aureus Newman [3]: >64 mg/L; Inner membrane depolarization (DiSC3(5) fluorescence), words [4]: did not depolarize the inner membrane; MIC, E. cloacae [5]: 0.5 mg/L; MIC at pH 5.0, S aureus COL [6, 18]: > 64 μg/mL; MIC at pH 7.4, S aureus COL ([6]; Müller-Hinton medium pH 7.4, 16–20 h at 37°C): > 64 μg/mL; MIC at pH 8.0, S aureus COL [6, 19]: 4 μg/mL; MIC at pH 7.4, A. baumannii ATCC 19606 [7, 20]: 0.25 μg/mL; MIC at pH 5.0, A. baumannii ATCC 19606 [7, 18]: 1 μg/mL; MIC at pH 8.0, A. baumannii ATCC 19606 [7, 19]: 0.25 μg/mL; MIC, K. pneumoniae OXA-48 [8]: 1 mg/L; Cell permeabilization (PI), percentage of PI-positive cells ([9]; 16 μg/mL): 96%; Cell permeabilization (PI), percentage of PI-positive cells ([9]; 32 μg/mL): 94%; Cell permeabilization (PI), percentage of PI-positive cells ([9]; 64 μg/mL): 96%; IC50 HEK293 [10]: 346 ± 20 mg/L; MIC at pH 7.4, P. aeruginosa PAO1 [11, 20]: 0.5 μg/mL; MIC at pH 5.0, P. aeruginosa PAO1 [11, 18]: 0.03 μg/mL; MIC at pH 8.0, P. aeruginosa PAO1 [11, 19]: 0.5 μg/mL; MIC, P. aeruginosa ZEM9A [12]: 64 mg/L; MIC, S. maltophilia [13]: 4 mg/L; MIC, B. cenocepacia [14]: >64 mg/L; MIC at pH 7.4, E. coli W3110 [15, 20]: 0.25 μg/mL; MIC at pH 5.0, E. coli W3110 [15, 18]: 0.02 μg/mL; MIC at pH 8.0, E. coli W3110 [15, 19]: 0.13 μg/mL; MHC (minimum hemolytic concentration) [16]: >2,000 μg/mL; MIC at pH 7.4, K. pneumoniae NCTC 418 [17, 20]: 0.25 μg/mL; MIC at pH 5.0, K. pneumoniae NCTC 418 [17, 18]: 8 μg/mL; MIC at pH 8.0, K. pneumoniae NCTC 418 [17, 19]: 0.25 μg/mL
